The text below walks through data of US8716350B2, “Compositions and methods for the treatment of somatosensory disorders” (Algynomics Inc., priority 2010, dated 2014).

Entries after “also recorded” stand apart in the source; their conditions may differ. Like-named read-outs stand apart in the source and are kept apart here.

One series deals with T1, ADRB2 (Homo sapiens, UniProt P07550).
T1 construct: expressed in transfected cells; host or cells: HEK-293 co-expressing GloSensor-22F
The experiment in a line: GloSensor cAMP-sensitive luciferase reporter assay, HEK-293 cells transfected with ADRB2. It is filed as cell-based. In general terms: Reporter assays use an easily measured gene product as a stand-in for the process of interest.

Another series relates to rotarod performance. The conditions noted are these: for ataxia on the rotarod test (in words): 60 mg/kg, 20-80 min after injection; for ED50 for maximal ataxia: 60 min following drug administration, interval in parentheses. On the technique in general: The rotarod test checks motor coordination on a turning rod.
The subject of series [1] is mechanical allodynia evoked by spared nerve injury. The experiment in a line: Spared nerve injury, von Frey test. The conditions noted are these: 60 mg/kg; 7 days postoperatively. It is filed as in vivo, CD-1 (ICR:Crl) mice. On the procedure:
All behavioral experiments were performed on naive, adult (6-12 weeks of age) CD-1 (ICR:Crl) mice of both sexes that were bred in-house from breeders obtained from Charles River (Boucherville, QC). All mice were housed with their same-sex littermates (two to four animals per cage) in standard shoebox cages, maintained in a temperature-controlled (20±1° C.) environment (14/10 h light/dark cycle), and fed (Harlan Teklad 8604) and watered ad libitum. The up-down method of Dixon (1965) was used. Mice were placed on a perforated metal floor (with 5-mm diameter holes placed 7 mm apart) within small Plexiglas cubicles (9×5×5 cm high), and a set of eight calibrated von Frey fibers (Stoelting Touch Test Sensory Evaluator Kit #2 to #9; ranging from ≈0.015 g to ≈1.3 g of force) were applied to the plantar surface of the hind paw until the fibers bowed and then held for 3 s. The threshold force required to elicit withdrawal of the paw (median 50% withdrawal) was determined twice on each hind paw (and averaged) for all baseline measurements (except for the spared nerve injury experiments), with sequential measurements separated by at least 20 min. Following drug administration, one measurement per hind paw was taken at the indicated time point. […]

Another series deals with formalin-induced pain. Description: Formalin test (5% formalin, intraplantar), Example 6. It is filed as in vivo, CD-1 (ICR:Crl) mice. The conditions noted are these: 95% confidence interval in parentheses; for ED50: Mus musculus.
The next series has as its system hind paw formalin test. The experiment in a line: Hind paw formalin test (2.5% formaldehyde), Example 2. It is filed as in vivo, mice. The conditions noted are these: for late phase, C-fiber mediated responses (paw licking): late/tonic phase, last 50 minutes.
A further series relates to thermal thresholds. Description: Radiant heat paw-withdrawal test (acute nociception). It is filed as in vivo, CD-1 (ICR:Crl) mice. The conditions noted are these: high dose; 20 min post-injection. Here is the method: All behavioral experiments were performed on naive, adult (6-12 weeks of age) CD-1 (ICR:Crl) mice of both sexes that were bred in-house from breeders obtained from Charles River (Boucherville, QC). All mice were housed with their same-sex littermates (two to four animals per cage) in standard shoebox cages, maintained in a temperature-controlled (20±1° C.) environment (14/10 h light/dark cycle), and fed (Harlan Teklad 8604) and watered ad libitum. Mice were placed on glass floor within small Plexiglas cubicles as described above, and a focused high-intensity projector lamp beam was directed from below onto the mid-plantar surface of the hind paw (Hargreaves et al., 1988). The commercial device (IITC Model 336) was set to 20% active intensity. Latency to withdraw from the stimulus was measured to the nearest 0.1 s. Baseline measurements consisted of testing both hind paws twice on three separate occasions separated by at least 30 min. Following drug administration both hind paws were only tested once at the indicated time point.

The subject of series [2] is λ-carrageenan thermal and mechanical allodynia. The experiment in a line: Carrageenan hyperalgesia (radiant heat and von Frey). It is filed as in vivo, CD-1 (ICR:Crl) mice. On the procedure:
All behavioral experiments were performed on naive, adult (6-12 weeks of age) CD-1 (ICR:Crl) mice of both sexes that were bred in-house from breeders obtained from Charles River (Boucherville, QC). All mice were housed with their same-sex littermates (two to four animals per cage) in standard shoebox cages, maintained in a temperature-controlled (20±1° C.) environment (14/10 h light/dark cycle), and fed (Harlan Teklad 8604) and watered ad libitum. The up-down method of Dixon (1965) was used. Mice were placed on a perforated metal floor (with 5-mm diameter holes placed 7 mm apart) within small Plexiglas cubicles (9×5×5 cm high), and a set of eight calibrated von Frey fibers (Stoelting Touch Test Sensory Evaluator Kit #2 to #9; ranging from ≈0.015 g to ≈1.3 g of force) were applied to the plantar surface of the hind paw until the fibers bowed and then held for 3 s. The threshold force required to elicit withdrawal of the paw (median 50% withdrawal) was determined twice on each hind paw (and averaged) for all baseline measurements (except for the spared nerve injury experiments), with sequential measurements separated by at least 20 min. Following drug administration, one measurement per hind paw was taken at the indicated time point. Mice were placed on glass floor within small Plexiglas cubicles as described above, and a focused high-intensity projector lamp beam was directed from below onto the mid-plantar surface of the hind paw (Hargreaves et al., 1988). The commercial device (IITC Model 336) was set to 20% active intensity. Latency to withdraw from the stimulus was measured to the nearest 0.1 s. Baseline measurements consisted of testing both hind paws twice on three separate occasions separated by at least 30 min. Following drug administration both hind paws were only tested once at the indicated time point. λ-Carrageenan (2%; 20 mg/ml; Sigma) was suspended by sonication in saline, and injected subcutaneously in a volume of 20 μl into the left plantar hindpaw using a 100 μL1 microsyringe with a 30-gauge needle. Mice were tested for thermal and mechanical sensitivity of both hind paws using the radiant heat paw withdrawal and von Frey tests before and 3 h post carrageenan injection. All drugs were injected immediately following the test for carrageenan hyperalgesia at the 3 h time point, and post-drug measurements were taken at 20, 40 and 60 min.

The next series is described as follows: in vivo. The conditions noted are these: mouse.
Another series concerns mechanical thresholds. The experiment in a line: Von Frey test (acute nociception). The conditions noted are these: 10, 30, 60 mg/kg. It is filed as in vivo, CD-1 (ICR:Crl) mice. Here is the method:
All behavioral experiments were performed on naive, adult (6-12 weeks of age) CD-1 (ICR:Crl) mice of both sexes that were bred in-house from breeders obtained from Charles River (Boucherville, QC). All mice were housed with their same-sex littermates (two to four animals per cage) in standard shoebox cages, maintained in a temperature-controlled (20±1° C.) environment (14/10 h light/dark cycle), and fed (Harlan Teklad 8604) and watered ad libitum. The up-down method of Dixon (1965) was used. Mice were placed on a perforated metal floor (with 5-mm diameter holes placed 7 mm apart) within small Plexiglas cubicles (9×5×5 cm high), and a set of eight calibrated von Frey fibers (Stoelting Touch Test Sensory Evaluator Kit #2 to #9; ranging from ≈0.015 g to ≈1.3 g of force) were applied to the plantar surface of the hind paw until the fibers bowed and then held for 3 s. The threshold force required to elicit withdrawal of the paw (median 50% withdrawal) was determined twice on each hind paw (and averaged) for all baseline measurements (except for the spared nerve injury experiments), with sequential measurements separated by at least 20 min. Following drug administration, one measurement per hind paw was taken at the indicated time point.

Series [3] concerns cells transfected with only Sport6 vector without inserts. The experiment in a line: GloSensor cAMP assay, cells transfected with only Sport6 vector without inserts. It is filed as cell-based.
Another series has as its target T2, ADRB3 (Homo sapiens, UniProt P13945).
T2 construct: expressed in transfected cells; host or cells: HEK-293 co-expressing GloSensor-22F
It is filed as cell-based. The conditions noted are these: cells transfected with ADRB3.

Another series addresses ADRB1 (Homo sapiens, UniProt P08588). The conditions noted are these: cells transfected with ADRB1.
Setting [4] is: 60 mg/kg, up to 60 min post-injection.
Where [5] appears, read: S-ALG 517 60, 90 mg/kg, R-ALG 517 60, 90, 120 mg/kg, propranolol 10, 30, 60 mg/kg.
The mark [6] stands for this setting: 0-10 min post-injection of formalin.
Setting [7] is: 10-60 min post-injection of formalin.

Chain of ADRB1 (P08588 whole entry, species assumed): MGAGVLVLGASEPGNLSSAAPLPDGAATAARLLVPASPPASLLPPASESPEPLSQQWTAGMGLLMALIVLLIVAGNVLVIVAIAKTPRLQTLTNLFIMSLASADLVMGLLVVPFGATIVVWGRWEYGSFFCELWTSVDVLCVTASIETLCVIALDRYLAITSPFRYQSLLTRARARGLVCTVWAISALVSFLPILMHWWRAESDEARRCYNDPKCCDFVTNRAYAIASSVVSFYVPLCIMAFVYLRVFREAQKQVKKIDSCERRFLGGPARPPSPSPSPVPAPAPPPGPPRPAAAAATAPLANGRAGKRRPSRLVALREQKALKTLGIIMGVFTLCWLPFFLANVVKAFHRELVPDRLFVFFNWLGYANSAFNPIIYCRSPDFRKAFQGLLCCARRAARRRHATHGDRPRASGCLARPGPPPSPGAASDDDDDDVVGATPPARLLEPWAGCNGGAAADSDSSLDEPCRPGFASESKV
T2 sequence (P13945 whole entry, species assumed): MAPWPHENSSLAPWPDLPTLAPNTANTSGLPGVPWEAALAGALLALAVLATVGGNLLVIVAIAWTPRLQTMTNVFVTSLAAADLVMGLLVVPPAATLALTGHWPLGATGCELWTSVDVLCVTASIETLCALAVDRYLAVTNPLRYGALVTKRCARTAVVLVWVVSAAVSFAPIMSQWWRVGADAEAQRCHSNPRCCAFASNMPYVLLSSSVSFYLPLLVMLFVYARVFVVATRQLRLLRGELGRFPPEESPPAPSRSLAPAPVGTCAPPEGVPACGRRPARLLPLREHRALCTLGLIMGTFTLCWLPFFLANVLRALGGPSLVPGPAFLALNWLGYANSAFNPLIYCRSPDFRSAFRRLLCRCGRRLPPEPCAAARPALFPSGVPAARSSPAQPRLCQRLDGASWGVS

For the compound dynorphin A, in the series with ADRB2, the “agonist stimulation of cAMP production” value is “showed agonistic properties”.

The ED50 is the dose at which the effect has come halfway, by size or by number of responders. For `Cc1ccc(Cl)c(OC[C@H](O)CNC(C)(C)C)c1` [R-ALG 517, R-tert-butyl[3-(2-chloro-5-methylphenoxy)-2-hydroxypropyl]amine], the “ataxia / sedation on rotarod over the doses tested (in words)” value in the series with rotarod performance (mouse, in vivo) is listed as “does not produce significant ataxia”. The “reversal of mechanical allodynia evoked by spared nerve injury” value in series [1] was “reversed”. The ED50 in the series with formalin-induced pain (0-10 min post-injection of formalin, read-out: half-maximal analgesic dose (ED50), Early Phase) came out at 46 mg/kg; in the series with formalin-induced pain (10-60 min post-injection of formalin, read-out: half-maximal analgesic dose (ED50), Late Phase), 26.6 mg/kg. The “late phase, C-fiber mediated responses (paw licking)” value with hind paw formalin test (10 mg/kg) was “reduced”. Also, the “early, A-delta mediated phase responses (paw licking)” value with hind paw formalin test (early/acute phase, first 5 min) is “not altered”. Further, the “thermal thresholds on the radiant heat test” value with thermal thresholds is “increased thermal thresholds”. Also, the “reversal of thermal hyperalgesia” value in series [2] (10 mg/kg) is “transient reversal”; in series [2] (30 mg/kg), “transient reversal”; in series [2] (setting [4]), “complete and sustained”. Also, the “reversal of mechanical hyperalgesia” value is “transient reversal” in [2] (30 mg/kg); “complete and sustained” in [2] (setting [4]). The compound also gave an ED50 at 60 min in the series “in vivo” of 166 mg/kg. In the series with mechanical thresholds, the “mechanical thresholds on the von Frey test” value is recorded as “no effect”.

`Cc1ccc(Cl)c(OC[C@@H](O)CNC(C)(C)C)c1` [S-ALG 517, S-tert-butyl[3-(2-chloro-5-methylphenoxy)-2-hydroxypropyl]amine]: in the series with rotarod performance, the “ataxia on the rotarod test (in words)” value is “only slight and possibly not even significant ataxia”; the “ED50 for maximal ataxia” value is 74 mg/kg. In addition, in the series with rotarod performance (setting [5]), the “ataxia / sedation on rotarod over the doses tested (in words)” value is recorded as “produce sedation at much lower doses”. In addition, in the series on formalin-induced pain (setting [6]), the “half-maximal analgesic dose (ED50), Early Phase” value is “not calculable”. The “half-maximal analgesic dose (ED50), Late Phase” value with formalin-induced pain (setting [7]) is listed as “not calculable”. For the same compound, the “responses to the hind paw formalin test” value in the series with hind paw formalin test (3 mg/kg) was “without effect”. Further, the “responses to the hind paw formalin test” value with hind paw formalin test (10 mg/kg) was “without effect”.

`CC(C)NCC(O)COc1cccc2ccccc12` (centres unmarked) [propranolol]: in the series on rotarod performance, the “ataxia on the rotarod test (in words)” value is on record as “fall off the rotarod very rapidly” and the “ED50 for maximal ataxia” value is listed as 4.76 mg/kg. For the same compound, the “ataxia / sedation on rotarod over the doses tested (in words)” value with rotarod performance (setting [5]) is reported as “produce sedation at much lower doses”. Also, the “half-maximal analgesic dose (ED50), Early Phase” value with formalin-induced pain (0-10 min post-injection of formalin, listed as racemic propranolol) came out at 33 mg/kg. Further, in the series on formalin-induced pain (10-60 min post-injection of formalin, listed as racemic propranolol), the “half-maximal analgesic dose (ED50), Late Phase” value worked out at 21.3 mg/kg. Besides, the “late phase, C-fiber mediated responses (paw licking)” value in the series on hind paw formalin test (10 mg/kg) is “reduced”.

As to `CC(C)NCC(O)COc1cccc2ccccc12` (centres unmarked) [S-Propranolol], the “half-maximal analgesic dose (ED50), Early Phase” value with formalin-induced pain (setting [6]) came out at 35 mg/kg. Also, in the series on formalin-induced pain (setting [7]), the “half-maximal analgesic dose (ED50), Late Phase” value amounted to 25.46 mg/kg.

As for `CN1CC[C@]23c4c5ccc(O)c4O[C@H]2[C@@H](O)C=C[C@H]3[C@H]1C5` [morphine], in [3], the cAMP response entry is listed as “did not evoke responses”. In addition, on ADRB3, the “intracellular cAMP accumulation” value was “dose-dependent increases”. For the same compound, on ADRB2, the “ADRB2 agonist potency in comparison with other agonists (in words)” value is on record as “most potent ADRB2 agonist”; the “agonist potency at ADRB2 as compared to ADRB1 and ADRB3” value is reported as 500-1000 times; the “agonist stimulation of cAMP production” value is listed as “stimulated cAMP production; also recorded: dose-dependent increases”; the “intrinsic activity at ADRB2 as compared to ADRB1 and ADRB3” value was “about 10 times”. Further, the “intracellular cAMP accumulation” value on ADRB1 is reported as “dose-dependent increases”.

With `CC(C)NC[C@@H](O)COc1cccc2ccccc12` [R-propranolol], the “half-maximal analgesic dose (ED50), Early Phase” value in the series with formalin-induced pain (setting [6]) is “not calculable”. For the same compound, the “half-maximal analgesic dose (ED50), Late Phase” value with formalin-induced pain (setting [7]) was “not calculable”.

On to `Cc1ccc(OCC(O)C(C)NC(C)C)c2c1CCC2` (centres unmarked) [ICI118,551, 3-(isopropylamino)-1-[(7-methyl-4-indanyl)oxy]butan-2-ol], for which the “blockade of morphine stimulation of cAMP” value was “no blockade” at ADRB3 (antagonist 300 nM) and “partial blockade” at ADRB1 (antagonist 300 nM).
